This is an account of results in patent US20230150974A1 (Foghorn Therapeutics Inc., priority 2020, published 2023).

Structures can show the parent of a compound that is named as a salt.

One experiment deals with T1, HiBit-BRG1 (Homo sapiens, UniProt P51532).
T1 construct: expressed in transfected cells
As to the kind of experiment: HiBit-BRG1 cell-based degradation assay (Nano-Glo HiBiT Lytic Detection). Particulars: HeLa cells expressing HiBit-BRG1 and LgBit, 24 h; for DC50: read-out: BRG1 HiBit Degradation IC50; for Dmax: read-out: BRG1 HiBit Degradation Maximum (%). Put shortly: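 Luminescence from reconstituted NanoBiT luciferase after lytic detection served as read-out of remaining HiBit-BRG1 in stable HeLa cells, which also express LgBit. Cells were seeded at 5000 per well and incubated with compound for 24 h. DMSO and a 2 μM known degrader defined the control range.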
Background: With HiBiT, luminescence reflects the tagged protein that the partner subunit can reach.

For a further experiment, the target named is T2, HiBiT-BRM (Homo sapiens, UniProt P51531).
T2 construct: expressed in transfected cells
Kind of experiment: HiBiT-BRM cell-based degradation assay (Nano-Glo HiBiT Lytic Detection). The following applies: HeLa cells expressing HiBiT-BRM, 24 h; for DC50: read-out: BRM HiBit Degradation IC50. Put shortly:
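HeLa cells stably expressing HiBiT-tagged BRM were treated for 24 h, then lysed with LgBiT-containing Nano-Glo reagent and luminescence read. % degradation scaled between DMSO (high control) and 2 μM reference BRM/BRG1 degrader (low control).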

T2 sequence (P51531 whole entry): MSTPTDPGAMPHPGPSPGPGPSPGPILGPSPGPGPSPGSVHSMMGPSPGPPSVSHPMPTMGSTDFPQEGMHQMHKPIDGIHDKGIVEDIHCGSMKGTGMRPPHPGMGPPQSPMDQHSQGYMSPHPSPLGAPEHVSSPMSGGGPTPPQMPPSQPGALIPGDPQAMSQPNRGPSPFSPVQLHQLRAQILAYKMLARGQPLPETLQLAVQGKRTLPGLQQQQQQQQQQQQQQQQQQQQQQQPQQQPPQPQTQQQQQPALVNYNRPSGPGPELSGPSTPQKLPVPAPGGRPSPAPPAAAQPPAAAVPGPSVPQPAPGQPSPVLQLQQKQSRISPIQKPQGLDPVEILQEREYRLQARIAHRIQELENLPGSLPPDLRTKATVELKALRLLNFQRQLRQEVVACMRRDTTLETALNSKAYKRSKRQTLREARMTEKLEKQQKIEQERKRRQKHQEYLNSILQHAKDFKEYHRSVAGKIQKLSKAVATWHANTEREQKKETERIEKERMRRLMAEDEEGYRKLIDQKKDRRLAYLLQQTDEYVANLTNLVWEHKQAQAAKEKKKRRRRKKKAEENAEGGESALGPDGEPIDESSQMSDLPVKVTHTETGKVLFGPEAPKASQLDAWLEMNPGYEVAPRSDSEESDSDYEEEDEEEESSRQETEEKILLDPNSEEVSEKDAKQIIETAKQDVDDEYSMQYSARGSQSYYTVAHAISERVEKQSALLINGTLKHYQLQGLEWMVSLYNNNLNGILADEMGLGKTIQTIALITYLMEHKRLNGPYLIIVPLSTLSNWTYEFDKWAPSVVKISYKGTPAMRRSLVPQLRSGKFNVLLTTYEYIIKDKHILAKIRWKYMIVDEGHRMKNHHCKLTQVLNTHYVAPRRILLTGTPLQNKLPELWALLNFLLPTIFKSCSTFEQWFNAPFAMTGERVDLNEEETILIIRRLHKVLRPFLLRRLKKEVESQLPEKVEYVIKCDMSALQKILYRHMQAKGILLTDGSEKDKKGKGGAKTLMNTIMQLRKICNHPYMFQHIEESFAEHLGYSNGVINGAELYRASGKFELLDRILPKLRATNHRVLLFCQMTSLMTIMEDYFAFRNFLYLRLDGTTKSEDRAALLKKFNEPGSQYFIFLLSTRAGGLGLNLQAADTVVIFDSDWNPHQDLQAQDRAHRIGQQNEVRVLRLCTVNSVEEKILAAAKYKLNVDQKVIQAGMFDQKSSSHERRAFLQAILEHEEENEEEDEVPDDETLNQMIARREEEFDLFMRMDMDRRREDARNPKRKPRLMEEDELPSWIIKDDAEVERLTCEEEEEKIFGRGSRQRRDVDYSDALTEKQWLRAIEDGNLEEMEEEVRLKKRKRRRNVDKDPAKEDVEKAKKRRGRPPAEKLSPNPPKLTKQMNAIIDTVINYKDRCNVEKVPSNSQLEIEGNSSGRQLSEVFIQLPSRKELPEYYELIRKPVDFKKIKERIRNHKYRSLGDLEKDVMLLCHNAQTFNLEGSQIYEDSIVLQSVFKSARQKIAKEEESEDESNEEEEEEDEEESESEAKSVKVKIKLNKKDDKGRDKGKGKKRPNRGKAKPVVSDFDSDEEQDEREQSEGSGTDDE
T1 sequence (P51532 whole entry): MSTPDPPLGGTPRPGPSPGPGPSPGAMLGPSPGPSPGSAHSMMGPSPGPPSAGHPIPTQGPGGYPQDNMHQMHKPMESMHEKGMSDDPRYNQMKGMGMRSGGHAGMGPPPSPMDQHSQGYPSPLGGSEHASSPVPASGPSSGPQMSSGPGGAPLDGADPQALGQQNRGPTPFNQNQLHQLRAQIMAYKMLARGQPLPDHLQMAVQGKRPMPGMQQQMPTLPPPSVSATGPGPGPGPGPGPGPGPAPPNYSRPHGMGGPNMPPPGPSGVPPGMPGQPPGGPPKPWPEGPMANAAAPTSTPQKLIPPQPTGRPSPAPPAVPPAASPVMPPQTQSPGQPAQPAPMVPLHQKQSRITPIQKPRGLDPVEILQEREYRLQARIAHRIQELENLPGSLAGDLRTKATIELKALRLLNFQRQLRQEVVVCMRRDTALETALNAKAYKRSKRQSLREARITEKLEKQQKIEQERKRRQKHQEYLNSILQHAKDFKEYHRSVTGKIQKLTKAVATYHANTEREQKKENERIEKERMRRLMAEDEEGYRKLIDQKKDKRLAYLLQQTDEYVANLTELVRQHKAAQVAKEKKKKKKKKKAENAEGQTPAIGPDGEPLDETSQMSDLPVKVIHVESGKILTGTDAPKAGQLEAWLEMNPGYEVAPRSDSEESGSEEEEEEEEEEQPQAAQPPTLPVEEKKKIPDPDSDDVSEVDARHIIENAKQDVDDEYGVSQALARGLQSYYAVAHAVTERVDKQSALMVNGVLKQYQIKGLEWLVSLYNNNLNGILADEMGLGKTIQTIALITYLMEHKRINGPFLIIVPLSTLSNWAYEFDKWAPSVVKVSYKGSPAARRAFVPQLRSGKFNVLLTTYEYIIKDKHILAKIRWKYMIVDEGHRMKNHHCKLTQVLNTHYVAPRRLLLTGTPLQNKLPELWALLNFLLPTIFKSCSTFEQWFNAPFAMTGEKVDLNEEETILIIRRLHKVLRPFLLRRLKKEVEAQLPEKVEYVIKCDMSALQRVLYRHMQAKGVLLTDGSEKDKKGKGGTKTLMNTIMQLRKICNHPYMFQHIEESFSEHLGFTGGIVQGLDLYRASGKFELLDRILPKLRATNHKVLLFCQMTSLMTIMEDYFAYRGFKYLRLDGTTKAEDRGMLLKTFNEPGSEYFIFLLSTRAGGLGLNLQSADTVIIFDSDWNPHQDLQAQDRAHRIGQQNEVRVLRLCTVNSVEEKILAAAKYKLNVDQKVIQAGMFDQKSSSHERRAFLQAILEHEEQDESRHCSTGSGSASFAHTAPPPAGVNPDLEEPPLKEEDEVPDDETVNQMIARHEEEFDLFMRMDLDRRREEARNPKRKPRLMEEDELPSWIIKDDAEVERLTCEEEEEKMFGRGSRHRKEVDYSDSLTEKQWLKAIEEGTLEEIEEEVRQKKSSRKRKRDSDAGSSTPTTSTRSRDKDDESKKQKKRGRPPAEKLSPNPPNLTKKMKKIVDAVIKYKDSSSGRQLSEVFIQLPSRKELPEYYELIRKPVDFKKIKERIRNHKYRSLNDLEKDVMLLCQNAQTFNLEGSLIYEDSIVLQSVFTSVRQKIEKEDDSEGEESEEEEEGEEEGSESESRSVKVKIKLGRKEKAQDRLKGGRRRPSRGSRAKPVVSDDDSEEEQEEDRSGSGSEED

On to `Nc1nnc(-c2ccccc2O)cc1OCCc1ccc(CNC(=O)CCCCCCCCNc2cccc3c2C(=O)N(C2CCC(=O)NC2=O)C3=O)cc1` (centres unmarked) [Compound 71, N-[[4-(2-[[3-amino-6-(2-hydroxyphenyl)pyridazin-4-yl]oxy]ethyl)phenyl]methyl]-9-[[2-(2,6-dioxopiperidin-3-yl)-1,3-dioxoisoindol-4-yl]amino]nonanamide], for which, at HiBit-BRG1, the DC50 was greater than 1000 nM and the Dmax is less than 50%. Further, on HiBiT-BRM, the “BRM HiBit Degradation Maximum (%)” value was “C (“C” indicates maximum degradation <50%)” and the DC50 was greater than 1000 nM.
On to `Nc1nnc(-c2cc(F)cc(Cl)c2O)cc1OCCc1ccc(CNCCCCCOc2cccc3c2C(=O)N(C2CCC(=O)NC2=O)C3=O)cc1` (centres unmarked) [Compound 119, 4-((5-((4-(2-((3-amino-6-(3-chloro-5-fluoro-2-hydroxyphenyl)pyridazin-4-yl)oxy)ethyl)benzyl)amino)pentyl)oxy)-2-(2,6-dioxopiperidin-3-yl)isoindoline-1,3-dione; formic acid salt], for which, on HiBit-BRG1, the DC50 is greater than 1000 nM and the Dmax was greater than 50%. Also, at HiBiT-BRM, the “BRM HiBit Degradation Maximum (%)” value is on record as “C (“C” indicates maximum degradation <50%)” and the DC50 was greater than 1000 nM.
For the compound `Cc1ncsc1-c1ccc([C@H](C)NC(=O)[C@@H]2C[C@@H](O)CN2C(=O)[C@@H](c2cc(OCCN3CC(C4CCN(C(=O)c5ccc(CCOc6cc(-c7ccccc7O)nnc6N)cc5)CC4)C3)no2)C(C)C)cc1` [Compound 211, (2S,4R)-1-[(2R)-2-[3-[2-(3-[1-[4-(2-[[3-amino-6-(2-hydroxyphenyl)pyridazin-4-yl]oxy]ethyl)benzoyl]piperidin-4-yl]azetidin-1-yl)ethoxy]-1,2-oxazol-5-yl]-3-methylbutanoyl]-4-hydroxy-N-[(1S)-1-[4-(4-methyl-1,3-thiazol-5-yl)phenyl]ethyl]pyrrolidine-2-carboxamide], on HiBit-BRG1, the DC50 was greater than 1000 nM and the Dmax is greater than 50%. On HiBiT-BRM, the “BRM HiBit Degradation Maximum (%)” value was “A (“A” indicates maximum degradation ≥75%)” and the DC50 is greater than 10 nM.
With `Nc1nnc(-c2ccccc2O)cc1OCCc1ccc(C(=O)NCCCCNc2ccc3c(c2)C(=O)N(C2CCC(=O)NC2=O)C3=O)cc1` (centres unmarked) [Compound 42, 4-(2-[[3-amino-6-(2-hydroxyphenyl)pyridazin-4-yl]oxy]ethyl)-N-(4-[[2-(2,6-dioxopiperidin-3-yl)-1,3-dioxoisoindol-5-yl]amino]butyl)benzamide], at HiBit-BRG1, the DC50 was greater than 1000 nM and the Dmax was less than 50%. Also, on HiBiT-BRM, the “BRM HiBit Degradation Maximum (%)” value is “C (“C” indicates maximum degradation <50%)” and the DC50 was greater than 1000 nM.
As for `Nc1nnc(-c2ccccc2O)cc1OCCc1ccc(CNC(=O)CCCCNc2cccc3c2C(=O)N(C2CCC(=O)NC2=O)C3)cc1` (centres unmarked) [Compound 155, N-(4-(2-((3-amino-6-(2-hydroxyphenyl)pyridazin-4-yl)oxy)ethyl)benzyl)-5-((2-(2,6-dioxopiperidin-3-yl)-3-oxoisoindolin-4-yl)amino)pentanamide], on HiBit-BRG1, the DC50 was greater than 1000 nM and the Dmax was less than 50%. Further, on HiBiT-BRM, the “BRM HiBit Degradation Maximum (%)” value is “A (“A” indicates maximum degradation ≥75%)” and the DC50 is greater than 100 nM.
Take `Nc1nnc(-c2ccccc2O)cc1OCCc1ccc(CNCCCCCNc2ccc3c(c2)C(=O)N(C2CCC(=O)NC2=O)C3=O)cc1` (centres unmarked) [Compound 117, 5-[[5-([[4-(2-[[3-amino-6-(2-hydroxyphenyl)pyridazin-4-yl]oxy]ethyl)phenyl]methyl]amino)pentyl]amino]-2-(2,6-dioxopiperidin-3-yl)isoindole-1,3-dione]: at HiBit-BRG1, the DC50 is greater than 1000 nM and the Dmax was greater than 75%. Further, on HiBiT-BRM, the “BRM HiBit Degradation Maximum (%)” value is listed as “B (“B” indicates maximum degradation ≥50%)” and the DC50 was greater than 1000 nM.
As for `Cc1ncsc1-c1ccc(CNC(=O)[C@@H]2C[C@@H](O)CN2C(=O)[C@@H](NC(=O)COCCNC(=O)c2ccc(CCOc3cc(-c4ccccc4O)nnc3N)cc2)C(C)(C)C)cc1` [Compound 163, (2S,4R)-1-((S)-2-(2-(2-(4-(2-((3-amino-6-(2-hydroxyphenyl)pyridazin-4-yl)oxy)ethyl)benzamido)ethoxy)acetamido)-3,3-dimethylbutanoyl)-4-hydroxy-N-(4-(4-methylthiazol-5-yl)benzyl)pyrrolidine-2-carboxamide], at HiBit-BRG1, the DC50 is greater than 1000 nM and the Dmax was less than 50%. Moreover, on HiBiT-BRM, the “BRM HiBit Degradation Maximum (%)” value was “B (“B” indicates maximum degradation ≥50%)” and the DC50 was greater than 1000 nM.
Take `Cc1ncsc1-c1ccc([C@H](C)NC(=O)[C@@H]2C[C@@H](O)CN2C(=O)[C@@H](c2cc(OCCN3CCC(C4CN(C(=O)c5ccc(CCOc6cc(-c7ccccc7O)nnc6N)cc5)C4)CC3)no2)C(C)C)cc1` [Compound 207, (2S,4R)-1-[(2R)-2-[3-[2-(4-[1-[4-(2-[[3-amino-6-(2-hydroxyphenyl)pyridazin-4-yl]oxy]ethyl)benzoyl]azetidin-3-yl]piperidin-1-yl)ethoxy]-1,2-oxazol-5-yl]-3-methylbutanoyl]-4-hydroxy-N-[(1S)-1-[4-(4-methyl-1,3-thiazol-5-yl)phenyl]ethyl]pyrrolidine-2-carboxamide]: at HiBit-BRG1, the DC50 is greater than 1000 nM and the Dmax was less than 50%. Moreover, at HiBiT-BRM, the “BRM HiBit Degradation Maximum (%)” value is reported as “A (“A” indicates maximum degradation ≥75%)” and the DC50 was greater than 10 nM.
With `Nc1nnc(-c2ccccc2O)cc1OCCc1ccc(CNCCCC2CN(c3cccc4c3C(=O)N(C3CCC(=O)NC3=O)C4=O)C2)cc1` (centres unmarked) [Compound 114, 4-(3-(3-((4-(2-((3-amino-6-(2-hydroxyphenyl)pyridazin-4-yl)oxy)ethyl)benzyl)amino)propyl)azetidin-1-yl)-2-(2,6-dioxopiperidin-3-yl)isoindoline-1,3-dione], at HiBit-BRG1, the DC50 is greater than 1000 nM and the Dmax is greater than 50%. For the same compound, on HiBiT-BRM, the “BRM HiBit Degradation Maximum (%)” value is “B (“B” indicates maximum degradation ≥50%)” and the DC50 was greater than 10 nM.
Taken in the same sequence, the figures for `Cc1ncsc1-c1ccc(CNC(=O)[C@@H]2C[C@@H](O)CN2C(=O)[C@@H](NC(=O)CCN2CC(C3CCN(C(=O)c4ccc(CCOc5cc(-c6ccccc6O)nnc5N)cc4)CC3)C2)C(C)(C)C)cc1` [Compound 199, (2S,4R)-1-((S)-2-(3-(3-(1-(4-(2-((3-amino-6-(2-hydroxyphenyl)pyridazin-4-yl)oxy)ethyl)benzoyl)piperidin-4-yl)azetidin-1-yl)propanamido)-3,3-dimethylbutanoyl)-4-hydroxy-N-(4-(4-methylthiazol-5-yl)benzyl)pyrrolidine-2-carboxamide] were greater than 1000 nM, less than 50%, “C (“C” indicates maximum degradation <50%)” and greater than 1000 nM.
For the compound `Cc1ncsc1-c1ccc(CNC(=O)[C@@H]2C[C@@H](O)CN2C(=O)[C@@H](NC(=O)CCN2CCC(CC(=O)NCc3ccc(CCOc4cc(-c5ccccc5O)nnc4N)cc3)CC2)C(C)(C)C)cc1` [Compound 181, (2S,4R)-1-((S)-2-(3-(4-(2-((4-(2-((3-amino-6-(2-hydroxyphenyl)pyridazin-4-yl)oxy)ethyl)benzyl)amino)-2-oxoethyl)piperidin-1-yl)propanamido)-3,3-dimethylbutanoyl)-4-hydroxy-N-(4-(4-methylthiazol-5-yl)benzyl)pyrrolidine-2-carboxamide], at HiBit-BRG1, the DC50 is greater than 1000 nM and the Dmax is less than 50%. Further, on HiBiT-BRM, the “BRM HiBit Degradation Maximum (%)” value is listed as “C (“C” indicates maximum degradation <50%)” and the DC50 is greater than 1000 nM.
Take `Cc1ncsc1-c1ccc(CNC(=O)[C@@H]2C[C@@H](O)CN2C(=O)[C@@H](NC(=O)COCCOCCOCCOCCOCCNC(=O)c2ccc(CCOc3cc(-c4ccccc4O)nnc3N)cc2)C(C)(C)C)cc1` [Compound 167, (2S,4R)-1-((S)-1-(4-(2-((3-amino-6-(2-hydroxyphenyl)pyridazin-4-yl)oxy)ethyl)phenyl)-21-(tert-butyl)-1,19-dioxo-5,8,11,14,17-pentaoxa-2,20-diazadocosan-22-oyl)-4-hydroxy-N-(4-(4-methylthiazol-5-yl)benzyl)pyrrolidine-2-carboxamide]: at HiBit-BRG1, the DC50 is greater than 1000 nM and the Dmax was less than 50%. In addition, on HiBiT-BRM, the “BRM HiBit Degradation Maximum (%)” value is reported as “B (“B” indicates maximum degradation ≥50%)” and the DC50 was greater than 1000 nM.
For `CN(CCCCCOc1cccc2c1C(=O)N(C1CCC(=O)NC1=O)C2=O)Cc1ccc(CCOc2cc(-c3ccccc3O)nnc2N)cc1` (centres unmarked) [Compound 113, 4-((5-((4-(2-((3-amino-6-(2-hydroxyphenyl)pyridazin-4-yl)oxy)ethyl)benzyl)(methyl)amino)pentyl)oxy)-2-(2,6-dioxopiperidin-3-yl)isoindoline-1,3-dione], on HiBit-BRG1, the DC50 was greater than 1000 nM and the Dmax was less than 50%. Besides, on HiBiT-BRM, the “BRM HiBit Degradation Maximum (%)” value is listed as “A (“A” indicates maximum degradation ≥75%)” and the DC50 was greater than 10 nM.
As for `Nc1nnc(-c2ccccc2O)cc1OCCc1ccc(C(=O)NCC(=O)NCc2ccc(S(=O)(=O)Nc3cccc4c(Cl)c[nH]c34)cc2)cc1` [Compound 18, 2-[[4-(2-[[3-amino-6-(2-hydroxyphenyl)pyridazin-4-yl]oxy]ethyl)phenyl]formamido]-N-([4-[(3-chloro-1H-indol-7-yl)sulfamoyl]phenyl]methyl)acetamide], on HiBit-BRG1, the DC50 was greater than 1000 nM and the Dmax was less than 50%. For the same compound, on HiBiT-BRM, the “BRM HiBit Degradation Maximum (%)” value was “C (“C” indicates maximum degradation <50%)” and the DC50 is greater than 1000 nM.
